Data from paper PMC3930709, “Selective Activation of hTRPV1 by N-Geranyl Cyclopropylcarboxamide, an Amiloride-Insensitive Salt Taste Enhancer” (PLoS ONE, 2014).
“And” between values parts separate entries of the source, which are not always exact repeats. Equal entries are not always repeated.

Experiments:
hTRPV1 = target: T1, hTRPV1 (Homo sapiens, UniProt Q8NER1); test: Measurement of Ca2+ influx (Fluo-4 AM, FlexStation III) in hTRPV1-expressing cells; type: cell-based
T1 construct: expressed in transfected cells; host or cells: HEK293T
T1 sequence (Q8NER1 whole entry): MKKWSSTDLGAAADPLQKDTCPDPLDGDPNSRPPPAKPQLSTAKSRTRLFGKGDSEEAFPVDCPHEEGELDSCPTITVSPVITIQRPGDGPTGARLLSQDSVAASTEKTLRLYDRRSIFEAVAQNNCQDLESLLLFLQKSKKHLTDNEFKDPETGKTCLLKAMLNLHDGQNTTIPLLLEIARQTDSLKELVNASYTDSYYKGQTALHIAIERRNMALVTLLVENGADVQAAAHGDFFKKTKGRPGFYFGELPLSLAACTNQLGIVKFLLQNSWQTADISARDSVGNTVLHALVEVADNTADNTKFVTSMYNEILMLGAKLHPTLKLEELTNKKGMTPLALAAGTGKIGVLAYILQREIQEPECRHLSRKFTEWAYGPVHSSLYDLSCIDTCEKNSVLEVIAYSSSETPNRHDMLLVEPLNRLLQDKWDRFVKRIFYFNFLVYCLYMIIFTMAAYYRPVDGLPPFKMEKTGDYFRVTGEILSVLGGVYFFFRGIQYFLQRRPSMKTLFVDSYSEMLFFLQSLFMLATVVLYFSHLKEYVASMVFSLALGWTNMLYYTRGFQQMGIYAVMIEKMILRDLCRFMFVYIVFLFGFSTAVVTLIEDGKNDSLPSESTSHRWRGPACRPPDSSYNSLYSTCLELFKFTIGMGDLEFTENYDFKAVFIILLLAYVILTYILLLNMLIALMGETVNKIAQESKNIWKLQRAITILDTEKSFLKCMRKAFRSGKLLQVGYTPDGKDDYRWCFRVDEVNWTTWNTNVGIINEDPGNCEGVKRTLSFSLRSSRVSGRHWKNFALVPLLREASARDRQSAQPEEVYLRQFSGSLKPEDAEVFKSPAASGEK
Protocol: hTRPV1 was constructed by amplification of the hTRPV1 region (NCBI accession number: NG_029716.1) and cloned into pEAK10 vector (Edge Biosystems, Gaithersburg, MD, USA). The hTRPV1 construct was amplified by PCR and the nucleotide sequence of the hTRPV1 gene was confirmed by sequencing with an ABI 3130 DNA genetic analyzer (Applied Biosystems, Foster City, CA, USA). […] After 6 h, transfected cells were seeded onto 96-well black-wall plate (BD Falcon Labware, Franklin Lakes, NJ, USA) for 18–26 h prior to their use in an experiment. The ligand-induced changes on cytosolic Ca^2+ level were monitored by a FlexStation III microplate reader (Molecular Devices). Fluo-4 AM (5 µM, Molecular Probes, Eugene, OR, USA) in assay buffer was loaded to the cells in 96-well black-wall plates for 30 min at 27°C. After dye treatment, each chemical was added to each well at 17 s and changes on intracellular Ca^2+ level were monitored by relative fluorescence units (ΔRFU, Ex = 485 nm; Em = 516 nm) for 120 s. […] The responses from at least three wells receiving the same stimulus were averaged. Plots of amplitude versus concentration were fitted using the Hill equation.

[1] = system: non-hTRPA1-expressing Flp-In 293 cells; test: Ca2+ imaging of non-hTRPA1-expressing Flp-In 293 cells (control); type: cell-based, human; conditions: comparison with hTRPA1-expressing cells
Protocol: Flp-In 293 cell lines stably expressing hTRPA1constructed as previously reported was a gift from the professor […] at University of Tokyo. The hTRPA1-expressing cells were cultured in DMEM containing 10% FBS and 0.02% hygromycin B (Invitrogen). Flp-In 293 cell lines were maintained in DMEM containing 10% FBS. All cells were incubated at 37°C in a humidified atmosphere of 5% CO2. […] Mock-transfected HEK293T cells, hTRPV1-expressing HEK293T cells, non-hTRPA1-expressing Flp-In 293 cells, and hTRPA1-expressing Flp-In 293 cells grown in 96-well black-wall plates were rinsed with assay buffer (130 mM NaCl, 10 mM glucose, 5 mM KCl, 2 […]2, 1.2 mM MgCl2, and 10 mM HEPES, pH 7.4) and loaded with 5 μM Fura-2 AM (Invitrogen) for 30 min at 27°C. The cells were washed with assay buffer and treated with ligands. […] The fluorescence intensities of Fura-2 excited at 340 and 380 nm were simultaneously measured at 510 nm using a computer-controlled filter changer (Lambda DG4; Sutter, San Rafael, CA, USA), an Andor Luca CCD camera (Andor Technology, Belfast, UK), and an inverted fluorescence microscope (IX-71; Olympus, Tokyo, Japan). Intracellular calcium images were recorded every 3-s for 60-s and analyzed using MetaFluor software (Molecular Devices, Sunnyvale, CA, USA).

hTRPA1 = target: T2, hTRPA1 (Homo sapiens, UniProt O75762); test: Whole-cell patch clamp recording, cells stably expressing hTRPA1; type: cell-based; conditions: NGCC 10^3 µM
T2 construct: expressed in transfected cells
T2 sequence (O75762 whole entry): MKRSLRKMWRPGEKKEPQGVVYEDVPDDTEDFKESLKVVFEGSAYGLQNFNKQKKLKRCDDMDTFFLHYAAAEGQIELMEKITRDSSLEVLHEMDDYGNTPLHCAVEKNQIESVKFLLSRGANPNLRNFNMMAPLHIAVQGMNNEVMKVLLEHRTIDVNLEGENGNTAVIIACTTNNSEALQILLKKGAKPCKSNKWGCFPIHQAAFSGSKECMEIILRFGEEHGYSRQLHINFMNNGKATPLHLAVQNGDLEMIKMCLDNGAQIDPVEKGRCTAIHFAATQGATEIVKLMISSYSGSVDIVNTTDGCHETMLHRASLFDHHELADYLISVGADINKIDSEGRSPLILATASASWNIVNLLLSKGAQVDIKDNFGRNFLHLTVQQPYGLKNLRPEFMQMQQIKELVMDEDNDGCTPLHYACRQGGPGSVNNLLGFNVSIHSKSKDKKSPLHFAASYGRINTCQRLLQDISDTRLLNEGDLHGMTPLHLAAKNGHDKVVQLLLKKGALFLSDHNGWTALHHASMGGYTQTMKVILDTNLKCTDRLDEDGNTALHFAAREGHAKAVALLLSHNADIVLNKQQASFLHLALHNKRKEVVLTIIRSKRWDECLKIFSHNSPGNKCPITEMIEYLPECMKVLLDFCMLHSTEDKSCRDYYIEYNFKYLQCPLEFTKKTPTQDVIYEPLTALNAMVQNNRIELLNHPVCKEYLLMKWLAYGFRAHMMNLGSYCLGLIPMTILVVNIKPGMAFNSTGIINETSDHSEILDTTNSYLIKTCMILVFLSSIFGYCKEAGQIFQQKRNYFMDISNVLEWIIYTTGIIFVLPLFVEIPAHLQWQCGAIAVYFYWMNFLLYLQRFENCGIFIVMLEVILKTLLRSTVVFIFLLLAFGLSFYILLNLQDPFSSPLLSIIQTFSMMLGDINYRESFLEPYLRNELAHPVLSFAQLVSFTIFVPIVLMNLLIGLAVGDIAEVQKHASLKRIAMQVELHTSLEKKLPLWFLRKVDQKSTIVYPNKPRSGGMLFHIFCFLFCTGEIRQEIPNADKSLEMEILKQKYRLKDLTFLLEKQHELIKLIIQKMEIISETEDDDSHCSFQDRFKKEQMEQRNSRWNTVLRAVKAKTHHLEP
Protocol: Flp-In 293 cell lines stably expressing hTRPA1constructed as previously reported was a gift from the professor Takumi Misaka at University of Tokyo. The hTRPA1-expressing cells were cultured in DMEM containing 10% FBS and 0.02% hygromycin B (Invitrogen). Flp-In 293 cell lines were maintained in DMEM containing 10% FBS. All cells were incubated at 37°C in a humidified atmosphere of 5% CO2.
The whole-cell configuration was used to voltage-clamp at room temperature (22–25°C). Electrodes pulled from glass micropipette capillaries (Sutter Instrument) had resistances of 2–2.5 MΩ, and series resistance errors were compensated >60%. Fast and slow capacitances were compensated before the application of test-pulse. Recordings were performed using aHEKAEPC-10 amplifier with pulse software (HEKA Elektronik). The pipette solution contained: 140 mM KCl, 5 mM MgCl2, 10 mM HEPES, 0.1 mM 1,2-bis(2-aminophenoxy) ethane N,N,N’,N’-tetraacetic acid(BAPTA), 3 mM Na2ATP, and 0.1 mM Na3GTP, adjusted to pH 7.4 with KOH. The external Ringer’s solution used for recording TRPV1 and TRPA1 currents contained: 150 mM NaCl, 5 mM KCl, 1 mM MgCl2, 2 mM EGTA, 10 mM Glucose, and 10 mM HEPES, adjusted to pH 7.4 with NaOH. TRPV1 and TRPA1 currents were recorded by holding the cell at −80 mV. The external Ringer’s solution used for recording ASIC current contained: 160 mM NaCl, 5 mM KCl, 1 mM MgCl2, 2 mM CaCl2, and 10 mM HEPES, adjusted to pH 7.4 with tetramethylammonium hydroxide. For acidic solution of pH 6.0, HEPES was replaced with MES. ASIC currents were recorded by holding the cell at −70 mV. Reagents were obtained as follows: BAPTA, Na2ATP, Na3GTP, EGTA, and tetramethylammonium hydroxide (Sigma), HEPES (Calbiochem), MES (Alfa Aesar), and other chemicals (Merck).

non-transfected cells = test: Whole-cell patch clamp recording, non-transfected cells (control); type: cell-based, human; conditions: capsaicin 100 nM, AITC 100 µM, NGCC 10^3 µM
Protocol: Mouse ASIC1a (mASIC1a) was a kind gift from John A. Wemmie (University of Iowa, IA, USA). For electrophysiological experiments, HEK293T cells were cultured in DMEM supplemented with 10% FBS and 0.2% penicillin/streptomycin and transiently transfected using Lipofectamine 2000 (Invitrogen) with various cDNAs. For TRPV1 channel expression, cells were transfected with hTRPV1, for ASIC1a homomeric channel expression, cells were transfected with mASIC1a. When needed, 0.1–0.2 µg of cDNA encoding tetrameric red fluorescence protein (DsRed) was co-transfected with the cDNA as a marker for successfully transfected cells. For non-transfected cells, cells were transfected with 0.1–0.2 µg of cDNA encoding DsRed alone. The next day, cells were plated onto poly-L-lysine-coated coverslip chips, and fluorescent cells were studied within 1–2 days.
The whole-cell configuration was used to voltage-clamp at room temperature (22–25°C). Electrodes pulled from glass micropipette capillaries (Sutter Instrument) had resistances of 2–2.5 MΩ, and series resistance errors were compensated >60%. Fast and slow capacitances were compensated before the application of test-pulse. Recordings were performed using aHEKAEPC-10 amplifier with pulse software (HEKA Elektronik). […] TRPV1 and TRPA1 currents were recorded by holding the cell at −80 mV. […] ASIC currents were recorded by holding the cell at −70 mV. […]

[2] = system: amiloride-insensitive salt taste pathway; design: method as in PMID 23221408; conditions: WT and TRPV1 KO mice, electrophysiological studies; cited from earlier work

Structure (SMILES): CC(C)=CCC/C(C)=C/CNC(=O)C1CC1 [NGCC, N-geranylcyclopropylcarboxamide]
- EC50 (hTRPV1; hTRPV1-expressing HEK293T cells, Hill fit): 115 µM and ~115 µM
- increase in [Ca2+]i relative to capsaicin (hTRPV1; hTRPV1-expressing cells): significantly smaller increase
- NGCC activity in non-hTRPA1-expressing Flp-In 293 cells [1]: reacts specifically with hTRPA1
- inward current in hTRPA1-expressing cells (hTRPA1; AITC 100 µM, holding -80 mV): induced an inward current
- amplitude of current compared with AITC (100 µM) (hTRPA1; same cell): bigger than that of AITC
- current in non-transfected cells (non-transfected cells): no current
- effect on the amiloride-insensitive salt taste pathway [2]: produced biphasic effects
